These results are taken from article PMC6544300, “Mechanism of the efflux transport of demethoxycurcumin-O-glucuronides in HeLa cells stably transfected with UDP-glucuronosyltransferase 1A1” (PLoS ONE, 2019).

One series concerns the target T1, UGT1A1 (Homo sapiens, UniProt P22309).
T1 sequence (P22309 26-533): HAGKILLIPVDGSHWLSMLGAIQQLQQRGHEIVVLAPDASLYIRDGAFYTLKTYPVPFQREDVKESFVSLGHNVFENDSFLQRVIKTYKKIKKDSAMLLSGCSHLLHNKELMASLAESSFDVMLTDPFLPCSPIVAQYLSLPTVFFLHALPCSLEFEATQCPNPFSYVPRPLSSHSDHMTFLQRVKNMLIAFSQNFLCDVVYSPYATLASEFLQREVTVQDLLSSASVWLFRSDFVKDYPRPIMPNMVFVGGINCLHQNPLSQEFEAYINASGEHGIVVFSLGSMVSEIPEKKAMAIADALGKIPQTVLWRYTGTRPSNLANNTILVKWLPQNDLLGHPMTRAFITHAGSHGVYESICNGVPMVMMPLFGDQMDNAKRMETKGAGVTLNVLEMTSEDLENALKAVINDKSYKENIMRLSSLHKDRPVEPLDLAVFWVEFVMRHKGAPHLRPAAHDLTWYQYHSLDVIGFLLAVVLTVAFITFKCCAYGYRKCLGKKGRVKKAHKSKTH
Briefly: Chemical inhibition of DMC-O-glucuronidation by UGT1A1 inhibitors in HeLa1A1 cell lysate. The series is classed as biochemical. Set-up: expressed in transfected cells; host or cells: HeLa cells stably overexpressing UGT1A1 (HeLa1A1), used as cell lysate. Conditions: DMC 4 μM, HeLa1A1 cell lysate 2.3 mg/mL. The method, then:
The glucuronidation assay was performed as previously described. Briefly, alamethicin (22 μg/mL), D-saccharic-1,4-lactone (4.4 mM), MgCl2 (0.88 mM), UGT1A1 (1.0 mg/mL) or HeLa1A1 cell lysates (2.3 mg/mL) and DMC (0.5 to 40 μM) were mixed in a 50 mM Tris buffer (pH 7.4). After a preincubation at 37°C for 5 min, UDPGA (3.5 mM) was added to the incubation system, and the mixture was further incubated. After 30 min, the reactions were terminated by the addition of ice-cold acetonitrile (200 μL). The mixed samples were centrifuged at 13,800 x g for 10 min, and the supernatant was analyzed using UHPLC.
Analyses of chemical inhibition and activity correlations were performed as two additional independent assays to determine the roles of the UGT1A1 enzyme. In these studies, nilotinib (10 μM), glycyrrhetinic acid (20 μM) and protopanaxatriol (500 μM) were used as UGT1A1 inhibitors to investigate the metabolic activities of DMC (4 μM). The incubation conditions were the same as those used for the glucuronidation activity assays.

A further series concerns the target T2, MRP1 (Homo sapiens, UniProt P33527).
T2 construct: BCRP, MRP1, MRP3, and MRP4 were detected in both wild-type HeLa and HeLa1A1 cells; endogenous in cells; host or cells: HeLa1A1 cells (MRP1-shRNA versus scrambled shRNA)
Nature of the series: shRNA-mediated MRP1 knock-down, glucuronide excretion in HeLa1A1 cells. The series is classed as cell-based. Conditions: DMC 4 μM; for decrease of efflux excretion rate / decrease of metabolized fraction: MRP1 knock-down; for decrease of efflux excretion rate: Fig 9C; for decrease of metabolized fraction: Fig 9E; for increase in intracellular level: MRP1 silencing, Fig 9D. As for the experimental part: (§1) Prior to the assays, HeLa1A1 cells were washed twice with prewarmed (37°C) Hank’s balanced salt solution (HBSS, pH = 7.4). Subsequently, HeLa1A1 cells were pretreated and incubated with DMC (2, 4 or 8 μM) and dissolved in 2 mL of HBSS. The sampling times were selected to ensure that the plots of the amount excreted versus time remained in the linear range. At each time point (0.5, 1.0, 1.5 and 2.0 h), 200 μL of incubation solutions were collected from each well, and an equal volume of loading media was used to replenish each well. Then, the collected samples were each mixed with 100 μL of ice-cold acetonitrile. The supernatants (8.0 μL) were subjected to an ultra high-performance liquid chromatography (UHPLC) analysis after centrifugation (10 min at 13,800 g).
(§2) Furthermore, the excretion rates of generated glucuronides were calculated using Eq (1). In addition, the fraction metabolized (fmet) value was defined as the fraction of the dose metabolized based on Eq (2). V represents the volume of the incubation medium, C represents the concentration of excreted glucuronides, and t represents the incubation time.
(§3) The shRNA plasmids targeting the efflux transporters BCRP, MRP1, MRP3 and MRP4 were constructed using previously described methods. HeLa1A1 cells were transiently transfected with the corresponding shRNA plasmids. The procedures for the establishment of HeLa1A1-BCRP-shRNA cells, HeLa1A1-MRP1-shRNA cells, HeLa1A1-MRP3-shRNA cells and HeLa1A1-MRP4-shRNA cells are detailed in our previous publication. Moreover, levels of the BCRP, MRP1, MRP3 and MRP4 proteins in these constructed HeLa1A1 cells were determined by western blotting assays, as described previously.

The target in another series is T3, MRP3 (Homo sapiens, UniProt O15438).
T3 construct: BCRP, MRP1, MRP3, and MRP4 were detected in both wild-type HeLa and HeLa1A1 cells; endogenous in cells; host or cells: HeLa1A1 cells (MRP3-shRNA versus scrambled shRNA)
T3 sequence (O15438 whole entry): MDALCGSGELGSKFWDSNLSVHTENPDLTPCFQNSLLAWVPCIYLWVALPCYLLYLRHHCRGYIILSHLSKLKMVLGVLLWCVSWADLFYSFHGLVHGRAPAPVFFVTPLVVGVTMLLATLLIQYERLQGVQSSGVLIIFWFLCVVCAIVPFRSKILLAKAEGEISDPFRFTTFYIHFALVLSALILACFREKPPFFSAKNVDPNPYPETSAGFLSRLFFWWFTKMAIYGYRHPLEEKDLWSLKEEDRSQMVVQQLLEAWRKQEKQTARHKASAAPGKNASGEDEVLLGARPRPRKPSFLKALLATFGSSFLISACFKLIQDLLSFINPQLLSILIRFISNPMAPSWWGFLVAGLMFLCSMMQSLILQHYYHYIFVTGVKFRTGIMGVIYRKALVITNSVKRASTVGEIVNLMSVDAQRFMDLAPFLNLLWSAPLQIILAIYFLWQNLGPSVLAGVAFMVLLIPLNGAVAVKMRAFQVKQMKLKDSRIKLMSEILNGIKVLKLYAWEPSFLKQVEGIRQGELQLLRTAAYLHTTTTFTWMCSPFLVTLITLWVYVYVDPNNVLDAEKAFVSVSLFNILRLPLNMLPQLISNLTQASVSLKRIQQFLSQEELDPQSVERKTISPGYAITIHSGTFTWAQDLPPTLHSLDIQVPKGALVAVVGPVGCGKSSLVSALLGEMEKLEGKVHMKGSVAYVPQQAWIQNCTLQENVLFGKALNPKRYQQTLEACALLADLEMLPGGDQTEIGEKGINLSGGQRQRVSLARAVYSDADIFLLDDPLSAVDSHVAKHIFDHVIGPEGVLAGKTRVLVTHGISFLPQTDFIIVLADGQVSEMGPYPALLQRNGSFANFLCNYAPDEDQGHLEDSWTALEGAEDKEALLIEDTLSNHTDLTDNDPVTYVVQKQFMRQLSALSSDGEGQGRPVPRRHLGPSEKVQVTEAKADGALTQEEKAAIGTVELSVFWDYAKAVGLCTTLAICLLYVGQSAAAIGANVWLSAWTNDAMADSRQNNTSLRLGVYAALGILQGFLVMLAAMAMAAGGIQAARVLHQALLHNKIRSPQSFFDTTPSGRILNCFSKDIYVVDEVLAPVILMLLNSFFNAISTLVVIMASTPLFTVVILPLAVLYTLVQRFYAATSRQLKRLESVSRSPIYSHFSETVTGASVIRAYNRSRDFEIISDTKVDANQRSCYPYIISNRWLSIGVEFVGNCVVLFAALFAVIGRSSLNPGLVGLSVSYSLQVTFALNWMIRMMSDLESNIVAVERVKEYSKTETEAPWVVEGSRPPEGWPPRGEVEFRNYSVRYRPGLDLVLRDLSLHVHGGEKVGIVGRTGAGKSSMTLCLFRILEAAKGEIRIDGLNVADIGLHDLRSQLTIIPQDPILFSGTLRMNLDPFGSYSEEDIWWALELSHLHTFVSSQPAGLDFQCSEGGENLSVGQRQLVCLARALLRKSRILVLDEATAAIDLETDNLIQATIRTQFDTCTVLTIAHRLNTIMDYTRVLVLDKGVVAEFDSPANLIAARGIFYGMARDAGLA
Nature of the series: shRNA-mediated MRP3 knock-down, glucuronide excretion in HeLa1A1 cells. The note with it: DMC 4 μM; for decrease of fmet value: MRP3 partial knock-down, Fig 10E; for decrease in efflux excretion clearance / increase in intracellular level: MRP3 silencing; for decrease in efflux excretion clearance: Fig 10C; for increase in intracellular level: Fig 10D. The series is classed as cell-based. The method, then:
as §1, §2, §3

In another series the target is T4, BCRP (Homo sapiens, UniProt Q9UNQ0).
T4 sequence (Q9UNQ0 1-655): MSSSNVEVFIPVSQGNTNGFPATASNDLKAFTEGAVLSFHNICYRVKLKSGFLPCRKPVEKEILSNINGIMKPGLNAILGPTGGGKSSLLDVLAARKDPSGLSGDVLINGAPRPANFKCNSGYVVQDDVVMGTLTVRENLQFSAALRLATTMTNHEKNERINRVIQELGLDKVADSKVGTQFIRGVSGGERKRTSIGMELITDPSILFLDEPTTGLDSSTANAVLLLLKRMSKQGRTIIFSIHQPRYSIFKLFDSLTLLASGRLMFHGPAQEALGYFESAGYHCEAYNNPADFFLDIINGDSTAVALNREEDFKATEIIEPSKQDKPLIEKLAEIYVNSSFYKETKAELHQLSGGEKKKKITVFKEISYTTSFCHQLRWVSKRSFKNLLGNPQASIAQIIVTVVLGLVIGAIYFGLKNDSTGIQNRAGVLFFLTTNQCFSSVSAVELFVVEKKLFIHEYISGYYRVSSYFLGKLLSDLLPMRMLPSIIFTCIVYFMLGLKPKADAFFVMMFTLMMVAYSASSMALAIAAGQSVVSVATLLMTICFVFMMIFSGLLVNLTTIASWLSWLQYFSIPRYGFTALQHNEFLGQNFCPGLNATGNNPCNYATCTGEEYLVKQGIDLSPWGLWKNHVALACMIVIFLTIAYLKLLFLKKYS
Nature of the series: shRNA-mediated BCRP knock-down, glucuronide excretion in HeLa1A1 cells. It counts as cell-based. Set-up: BCRP, MRP1, MRP3, and MRP4 were detected in both wild-type HeLa and HeLa1A1 cells; endogenous in cells; host or cells: HeLa1A1 cells. The note with it: BCRP silencing, DMC 4 μM; for reduction of efflux excretion rate: Fig 8C; for increase of intracellular level: Fig 8D; for decrease in fmet value: Fig 8E. As for the experimental part:
as §1, §2, §3

Another series relates to BCRP transporter. Set-up: method as in PMID 12477054. Conditions: cited from earlier work.

Each structure is given as a SMILES string.

T2 sequence (P33527 whole entry): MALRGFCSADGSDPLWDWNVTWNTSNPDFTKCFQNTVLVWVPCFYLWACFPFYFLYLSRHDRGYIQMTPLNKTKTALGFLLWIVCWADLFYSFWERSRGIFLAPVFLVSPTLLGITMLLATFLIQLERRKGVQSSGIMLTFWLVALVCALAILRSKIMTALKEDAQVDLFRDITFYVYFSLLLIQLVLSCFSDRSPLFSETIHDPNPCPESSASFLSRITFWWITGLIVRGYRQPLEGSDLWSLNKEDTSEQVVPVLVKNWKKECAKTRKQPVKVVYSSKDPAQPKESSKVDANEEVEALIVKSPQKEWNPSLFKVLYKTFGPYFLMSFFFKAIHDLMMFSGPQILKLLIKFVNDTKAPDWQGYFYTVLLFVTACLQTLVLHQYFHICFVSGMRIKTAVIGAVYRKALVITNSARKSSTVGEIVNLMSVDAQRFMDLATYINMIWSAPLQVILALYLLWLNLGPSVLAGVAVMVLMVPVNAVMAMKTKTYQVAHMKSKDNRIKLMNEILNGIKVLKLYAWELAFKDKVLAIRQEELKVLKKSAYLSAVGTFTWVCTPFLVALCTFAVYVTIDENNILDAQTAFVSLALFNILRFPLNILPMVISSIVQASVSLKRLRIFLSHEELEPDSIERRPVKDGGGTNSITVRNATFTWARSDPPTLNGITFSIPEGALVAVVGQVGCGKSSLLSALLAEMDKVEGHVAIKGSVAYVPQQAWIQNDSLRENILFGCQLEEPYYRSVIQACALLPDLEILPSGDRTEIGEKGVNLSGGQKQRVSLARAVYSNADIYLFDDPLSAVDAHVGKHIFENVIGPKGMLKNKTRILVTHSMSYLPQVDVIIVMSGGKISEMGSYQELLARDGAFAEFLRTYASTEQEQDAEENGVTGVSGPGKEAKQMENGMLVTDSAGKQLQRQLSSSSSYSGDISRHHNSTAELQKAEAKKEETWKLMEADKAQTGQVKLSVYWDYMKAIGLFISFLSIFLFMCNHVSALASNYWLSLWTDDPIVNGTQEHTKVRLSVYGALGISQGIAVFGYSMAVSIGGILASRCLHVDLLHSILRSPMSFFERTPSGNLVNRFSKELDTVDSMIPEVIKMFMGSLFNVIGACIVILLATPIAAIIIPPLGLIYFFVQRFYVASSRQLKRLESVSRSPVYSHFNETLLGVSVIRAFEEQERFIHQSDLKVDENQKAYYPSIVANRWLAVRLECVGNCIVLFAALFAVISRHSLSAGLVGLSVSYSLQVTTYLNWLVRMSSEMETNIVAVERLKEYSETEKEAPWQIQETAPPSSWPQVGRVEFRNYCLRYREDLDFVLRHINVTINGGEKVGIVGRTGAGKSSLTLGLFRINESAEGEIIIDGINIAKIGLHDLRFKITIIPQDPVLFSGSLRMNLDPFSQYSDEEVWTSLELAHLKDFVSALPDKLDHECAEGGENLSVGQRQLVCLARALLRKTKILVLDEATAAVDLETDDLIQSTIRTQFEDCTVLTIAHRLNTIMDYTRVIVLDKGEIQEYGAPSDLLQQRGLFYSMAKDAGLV

In the case of `CC(C)=CCC[C@](C)(O)[C@H]1CC[C@]2(C)[C@@H]1[C@H](O)C[C@@H]1[C@@]3(C)CC[C@H](O)C(C)(C)[C@@H]3[C@@H](O)C[C@]12C` [protopanaxatriol], the “formation of G1 and G2” value at UGT1A1 (inhibitor 500 μM) is “significantly inhibited”.

Regarding `CC1(C)[C@@H](O)CC[C@]2(C)[C@H]3C(=O)C=C4[C@@H]5C[C@@](C)(C(=O)O)CC[C@]5(C)CC[C@@]4(C)[C@]3(C)CC[C@@H]12` [glycyrrhetinic acid], the “formation of G1 and G2” value at UGT1A1 (inhibitor 20 μM) is “significantly inhibited”.

For `COc1cc(/C=C/C(=O)CC(=O)/C=C/c2ccc(O[C@@H]3O[C@H](C(=O)O)[C@@H](O)[C@H](O)[C@H]3O)cc2)ccc1O` [G2], on MRP1, the “decrease of efflux excretion rate” value is reported as 36.9%, the “decrease of metabolized fraction” value was 29.8% and the “increase in intracellular level” value worked out at 36.1%. Moreover, on MRP3, the “decrease of fmet value” amounted to 27.9%, the “decrease in efflux excretion clearance” value is reported as 26.4% and the “increase in intracellular level” value amounted to 32.1%. In addition, on BCRP, the “reduction of efflux excretion rate” value is recorded as 33.0%, the “increase of intracellular level” value came out at 51.6% and the “decrease in fmet value” was found to be 24.5%.

Consider `COc1cc(/C=C/C(=O)CC(=O)/C=C/c2ccc(O)cc2)ccc1O[C@@H]1O[C@H](C(=O)O)[C@@H](O)[C@H](O)[C@H]1O` [G1], for which, on MRP1, the “decrease of efflux excretion rate” value came out at 20.8%, the “decrease of metabolized fraction” value is recorded as 16.5% and the “increase in intracellular level” value is 33.1%. In addition, on MRP3, the “decrease of fmet value” is listed as 16.2%, the “decrease in efflux excretion clearance” value was 19.7% and the “increase in intracellular level” value came out at 31.5%. For the same molecule, on BCRP, the “reduction of efflux excretion rate” value turned out to be 29.9%, the “increase of intracellular level” value was determined as 40.9% and the “decrease in fmet value” is recorded as 20.1%.

In general, IC50 refers to the concentration at which inhibition is half-maximal. As for `COc1ccc2c3c([nH]c2c1)[C@H](CC(C)C)N1C(=O)[C@H](CCC(=O)OC(C)(C)C)NC(=O)[C@@H]1C3` [Ko143], the half-inhibitory concentration (IC50) in the series on BCRP transporter was 23 nM.

With `Cc1cn(-c2cc(NC(=O)c3ccc(C)c(Nc4nccc(-c5cccnc5)n4)c3)cc(C(F)(F)F)c2)cn1` [Nilotinib, nilotinib], the “formation of G1 and G2” value at UGT1A1 (inhibitor 10 μM) is “significantly inhibited”.
